Source: the supplement of paper PMC10307832

Assays:
Test in all cases: relative viability (nuclei count vs DMSO), 5 days (fraction); higher = more cells survive
[1] = compound: CCOC(=O)CCNc1cc(N2CCc3ccccc3CC2)nc(-c2ccccn2)n1 [GSK-J4] + CCNC(=O)c1noc(-c2cc(C(C)C)c(O)cc2O)c1-c1ccc(CN2CCOCC2)cc1 [Luminespib] (partner 0.01 µM)
How it was run: (§1)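 Lung cancer cell lines, seeded in 1536-well plates, were treated the following day by pin tool with a single drug or with five library-drug doses (not always all listed) in √10 steps on top of a fixed anchor-drug dose. Cells were fixed and nuclei stained in one step after 5 days, and nuclei were counted. Relative viability is the nuclei count for treated wells divided by that for vehicle wells, reported as medians of duplicate plates.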

[2] = compound: CCOC(=O)CCNc1cc(N2CCc3ccccc3CC2)nc(-c2ccccn2)n1 [GSK-J4] + N=C(N)NC(=N)NCCc1ccccc1 [Phenformin] (partner 250 µM)
How it was run: as §1

[3] = compound: CCOC(=O)CCNc1cc(N2CCc3ccccc3CC2)nc(-c2ccccn2)n1 [GSK-J4] + Nc1ncn([C@H]2C[C@H](O)[C@@H](CO)O2)c(=O)n1 [Decitabine] (partner 2 µM)
How it was run: as §1

[4] = compound: CN1CCC(CC1)OC2=CC(=C(C=C2)NC3=NC=C4C(=N3)N(C(=O)N4C)C5CCCC5)OC [AZ3146] + C[C@]1(O)C[C@@H](c2nc(-c3ccc4ccc(-c5ccccc5)nc4c3)c3c(N)nccn32)C1 [Linsitinib] (partner 1 µM)
How it was run: as §1

A-427
relative viability ([1]; first compound 0.5 µM): 0.866
relative viability ([1]; first compound 5 µM): 0.64
relative viability ([1]; first compound 15.81 µM): 0.681
relative viability ([1]; first compound 50 µM): 0.311
relative viability ([2]; first compound 0.5 µM): 0.406
relative viability ([2]; first compound 5 µM): 0.219
relative viability ([2]; first compound 15.81 µM): 0.218
relative viability ([2]; first compound 50 µM): 0.138
relative viability ([3]; first compound 0.5 µM): 0.554
relative viability ([3]; first compound 1.581 µM): 0.528
relative viability ([3]; first compound 15.81 µM): 0.523
relative viability ([3]; first compound 50 µM): 0.434
relative viability ([4]; first compound 0.08 µM): 1.08
relative viability ([4]; first compound 0.253 µM): 1.07
relative viability ([4]; first compound 0.8 µM): 1.04
relative viability ([4]; first compound 2.53 µM): 1.19
relative viability ([4]; first compound 8 µM): 1.12

NCI-H520
relative viability ([1]; first compound 0.5 µM): 0.215
relative viability ([1]; first compound 1.581 µM): 0.242
relative viability ([1]; first compound 5 µM): 0.207
relative viability ([1]; first compound 15.81 µM): 0.194
relative viability ([1]; first compound 50 µM): 0.197
relative viability ([2]; first compound 0.5 µM): 0.582
relative viability ([2]; first compound 1.581 µM): 0.478
relative viability ([2]; first compound 5 µM): 0.46
relative viability ([2]; first compound 15.81 µM): 0.303
relative viability ([2]; first compound 50 µM): 0.445
relative viability ([3]; first compound 0.5 µM): 0.51
relative viability ([3]; first compound 1.581 µM): 0.336
relative viability ([3]; first compound 5 µM): 0.541
relative viability ([3]; first compound 15.81 µM): 0.502
relative viability ([3]; first compound 50 µM): 0.446
relative viability ([4]; first compound 0.08 µM): 0.843
relative viability ([4]; first compound 0.253 µM): 0.896
relative viability ([4]; first compound 0.8 µM): 1.05
relative viability ([4]; first compound 2.53 µM): 1.12
relative viability ([4]; first compound 8 µM): 0.786

NCI-H1755
relative viability ([1]; first compound 0.5 µM): 0.355
relative viability ([1]; first compound 1.581 µM): 0.387
relative viability ([1]; first compound 5 µM): 0.504
relative viability ([1]; first compound 15.81 µM): 0.326
relative viability ([1]; first compound 50 µM): 0.383
relative viability ([2]; first compound 0.5 µM): 0.606
relative viability ([2]; first compound 1.581 µM): 0.5
relative viability ([2]; first compound 5 µM): 0.367
relative viability ([2]; first compound 15.81 µM): 0.49
relative viability ([2]; first compound 50 µM): 0.56
relative viability ([3]; first compound 0.5 µM): 0.727
relative viability ([3]; first compound 1.581 µM): 0.569
relative viability ([3]; first compound 5 µM): 0.641
relative viability ([3]; first compound 15.81 µM): 0.61
relative viability ([3]; first compound 50 µM): 0.709
relative viability ([4]; first compound 0.08 µM): 0.885
relative viability ([4]; first compound 0.253 µM): 1.02
relative viability ([4]; first compound 0.8 µM): 0.932
relative viability ([4]; first compound 2.53 µM): 1.01
relative viability ([4]; first compound 8 µM): 0.972

NCI-H1975
relative viability ([1]; first compound 0.5 µM): 0.261
relative viability ([1]; first compound 1.581 µM): 0.202
relative viability ([1]; first compound 15.81 µM): 0.178
relative viability ([1]; first compound 50 µM): 0.284
relative viability ([2]; first compound 0.5 µM): 0.415
relative viability ([2]; first compound 1.581 µM): 0.417
relative viability ([2]; first compound 5 µM): 0.288
relative viability ([2]; first compound 15.81 µM): 0.36
relative viability ([2]; first compound 50 µM): 0.428
relative viability ([3]; first compound 0.5 µM): 0.401
relative viability ([3]; first compound 1.581 µM): 0.352
relative viability ([3]; first compound 5 µM): 0.323
relative viability ([3]; first compound 15.81 µM): 0.376
relative viability ([3]; first compound 50 µM): 0.394
relative viability ([4]; first compound 0.08 µM): 0.988
relative viability ([4]; first compound 0.253 µM): 0.986
relative viability ([4]; first compound 0.8 µM): 1
relative viability ([4]; first compound 2.53 µM): 0.978
relative viability ([4]; first compound 8 µM): 0.352

ChaGo-K-1
relative viability ([1]; first compound 0.5 µM): 0.56
relative viability ([1]; first compound 1.581 µM): 0.627
relative viability ([1]; first compound 5 µM): 0.594
relative viability ([1]; first compound 15.81 µM): 0.607
relative viability ([1]; first compound 50 µM): 0.45
relative viability ([2]; first compound 0.5 µM): 0.488
relative viability ([2]; first compound 1.581 µM): 0.49
relative viability ([2]; first compound 5 µM): 0.438
relative viability ([2]; first compound 15.81 µM): 0.475
relative viability ([2]; first compound 50 µM): 0.422
relative viability ([3]; first compound 0.5 µM): 0.535
relative viability ([3]; first compound 5 µM): 0.557
relative viability ([3]; first compound 15.81 µM): 0.479
relative viability ([3]; first compound 50 µM): 0.471

BEN
relative viability ([1]; first compound 0.5 µM): 0.297
relative viability ([1]; first compound 1.581 µM): 0.373
relative viability ([1]; first compound 15.81 µM): 0.289
relative viability ([1]; first compound 50 µM): 0.189
relative viability ([2]; first compound 0.5 µM): 0.25
relative viability ([2]; first compound 1.581 µM): 0.261
relative viability ([2]; first compound 15.81 µM): 0.276
relative viability ([2]; first compound 50 µM): 0.254
relative viability ([3]; first compound 0.5 µM): 0.762
relative viability ([3]; first compound 1.581 µM): 0.511
relative viability ([3]; first compound 5 µM): 0.489
relative viability ([3]; first compound 15.81 µM): 0.679
relative viability ([3]; first compound 50 µM): 0.597
relative viability ([4]; first compound 0.253 µM): 0.919
relative viability ([4]; first compound 0.8 µM): 0.703
relative viability ([4]; first compound 2.53 µM): 1.01
relative viability ([4]; first compound 8 µM): 0.843

SW 1573
relative viability ([1]; first compound 0.5 µM): 0.199
relative viability ([1]; first compound 1.581 µM): 0.0964
relative viability ([1]; first compound 5 µM): 0.268
relative viability ([1]; first compound 15.81 µM): 0.213
relative viability ([1]; first compound 50 µM): 0.148
relative viability ([2]; first compound 0.5 µM): 0.315
relative viability ([2]; first compound 1.581 µM): 0.326
relative viability ([2]; first compound 5 µM): 0.336
relative viability ([2]; first compound 15.81 µM): 0.262
relative viability ([2]; first compound 50 µM): 0.247
relative viability ([3]; first compound 0.5 µM): 0.592
relative viability ([3]; first compound 1.581 µM): 0.645
relative viability ([3]; first compound 5 µM): 0.436
relative viability ([3]; first compound 15.81 µM): 0.442
relative viability ([3]; first compound 50 µM): 0.204
relative viability ([4]; first compound 0.08 µM): 0.912
relative viability ([4]; first compound 0.253 µM): 0.933
relative viability ([4]; first compound 0.8 µM): 0.823
relative viability ([4]; first compound 2.53 µM): 0.859
relative viability ([4]; first compound 8 µM): 0.708

EPLC-272H
relative viability ([1]; first compound 0.5 µM): 0.263
relative viability ([1]; first compound 1.581 µM): 0.408
relative viability ([1]; first compound 5 µM): 0.346
relative viability ([1]; first compound 15.81 µM): 0.203
relative viability ([1]; first compound 50 µM): 0.173
relative viability ([2]; first compound 0.5 µM): 0.347
relative viability ([2]; first compound 1.581 µM): 0.24
relative viability ([2]; first compound 5 µM): 0.192
relative viability ([2]; first compound 15.81 µM): 0.3
relative viability ([2]; first compound 50 µM): 0.154
relative viability ([3]; first compound 0.5 µM): 0.408
relative viability ([3]; first compound 1.581 µM): 0.33
relative viability ([3]; first compound 5 µM): 0.448
relative viability ([3]; first compound 15.81 µM): 0.339
relative viability ([3]; first compound 50 µM): 0.308
relative viability ([4]; first compound 0.08 µM): 0.988
relative viability ([4]; first compound 0.253 µM): 1.07
relative viability ([4]; first compound 0.8 µM): 1.16
relative viability ([4]; first compound 2.53 µM): 1.07
relative viability ([4]; first compound 8 µM): 1.24

LK-2
relative viability ([1]; first compound 0.5 µM): 0.191
relative viability ([1]; first compound 5 µM): 0.151
relative viability ([1]; first compound 15.81 µM): 0.193
relative viability ([1]; first compound 50 µM): 0.159
relative viability ([2]; first compound 0.5 µM): 0.707
relative viability ([2]; first compound 5 µM): 0.416
relative viability ([2]; first compound 15.81 µM): 0.23
relative viability ([2]; first compound 50 µM): 0.253
relative viability ([3]; first compound 0.5 µM): 0.222
relative viability ([3]; first compound 1.581 µM): 0.283
relative viability ([3]; first compound 5 µM): 0.447
relative viability ([3]; first compound 15.81 µM): 0.262
relative viability ([3]; first compound 50 µM): 0.338
relative viability ([4]; first compound 0.08 µM): 0.672
relative viability ([4]; first compound 0.253 µM): 0.645
relative viability ([4]; first compound 0.8 µM): 0.562
relative viability ([4]; first compound 2.53 µM): 0.519
relative viability ([4]; first compound 8 µM): 0.729
